Entries after “also recorded” stand apart in the source; their conditions may differ. Where a name gives a salt, the structure may show the parent alone.
Assay: Antagonistic effects on the anesthetic and lethal effects of acetaldehyde in rats
Type: in vivo
Settings: acetaldehyde 1370 mg/kg oral, hydrochloride
Experimental: Rats (body weights 250-280 g) fasted for 18 hours were previously dosed orally with each of test compositions Formula A to Formula G as shown in below. Control group received a corresponding volume of saline by the same route. After a predetermined time (45-60 min ), acetaldehyde (1370 mg/kg) was orally administered to the rats and the effect of Formula A to Formula G on the anesthetic and lethal effects of acetaldehyde was observed.
When 1370 mg/kg of acetaldehyde was administered without prior treatment with the test compositions, the rats (control group) fell into anesthesia within several minutes, and then developed dyspnea and the like and 90% of them died within 1 to 6 hours.
The same experiment as Experimental Example I was carried out with each of test compositions Formula H and I and the results obtained are shown in Table 4.

## CC(=C(CCO)SSCC1CCCO1)N(C=O)Cc1cnc(C)nc1N (stereo in doubt) [fursultiamine hydrochloride]
  antagonizing effect against anesthetic and lethal effects of acetaldehyde (in words): fully effective at the level of addition of 20 mg/kg; also recorded: more effective than thiamine hydrochloride

— patent publication US5202354A, “Composition and method for reducing acetaldehyde toxicity” (priority 1986, dated 1993)
